Experimental data as given in the NIST ThermoML archive (doi:10.1021/acs.jced.5b00623).
Several values for one entry are separate records, joined by “and”; a condition that tells them apart may be missing. Identical values can stand only once.

Settings: for vapor or sublimation pressure: Closed cell (Static) method

O=C(C(F)(F)C(F)(F)F)C(F)(C(F)(F)F)C(F)(F)F [dodecafluoro-2-methylpentan-3-one]
Settings | mass density [kg/m3] | speed of sound [m/s]
225.01 K, 992.5 kPa, Liquid, Buoyancy - hydrostatic balance with magnetic suspension - two sinkers | 1809.67 | –
225.01 K, 6306.6 kPa, Liquid, Buoyancy - hydrostatic balance with magnetic suspension - two sinkers | 1821.02 | –
235 K, 11155 kPa, Liquid, Buoyancy - hydrostatic balance with magnetic suspension - two sinkers | 1806.22 | –
240 K, 16200 kPa, Liquid, Buoyancy - hydrostatic balance with magnetic suspension - two sinkers | 1804.64 | –
245 K, 21227 kPa, Liquid, Buoyancy - hydrostatic balance with magnetic suspension - two sinkers | 1803.18 | –
250 K, 26208 kPa, Liquid, Buoyancy - hydrostatic balance with magnetic suspension - two sinkers | 1801.77 | –
260 K, 1145.1 kPa, Liquid, Buoyancy - hydrostatic balance with magnetic suspension - two sinkers | 1716.09 | –
260 K, 6242.2 kPa, Liquid, Buoyancy - hydrostatic balance with magnetic suspension - two sinkers | 1731.21 | –
260 K, 12122 kPa, Liquid, Buoyancy - hydrostatic balance with magnetic suspension - two sinkers | 1746.98 | –
260 K, 18392 kPa, Liquid, Buoyancy - hydrostatic balance with magnetic suspension - two sinkers | 1762.27 | –
260 K, 27930 kPa, Liquid, Buoyancy - hydrostatic balance with magnetic suspension - two sinkers | 1783.14 | –
260 K, 36060 kPa, Liquid, Buoyancy - hydrostatic balance with magnetic suspension - two sinkers | 1799.13 | –
270 K, 8922.2 kPa, Liquid, Buoyancy - hydrostatic balance with magnetic suspension - two sinkers | 1713.2 | –
275 K, 12791 kPa, Liquid, Buoyancy - hydrostatic balance with magnetic suspension - two sinkers | 1711.88 | –
278.15 K, 83 kPa, Liquid, Vibrating tube method | 1660.83 | –
280 K, 16636 kPa, Liquid, Buoyancy - hydrostatic balance with magnetic suspension - two sinkers | 1710.6 | –
283.15 K, 83 kPa, Liquid, Vibrating tube method | 1646.79 | –
285 K, 20456 kPa, Liquid, Buoyancy - hydrostatic balance with magnetic suspension - two sinkers | 1709.38 | –
288.15 K, 83 kPa, Liquid, Vibrating tube method | 1632.33 | –
290 K, 24255 kPa, Liquid, Buoyancy - hydrostatic balance with magnetic suspension - two sinkers | 1708.2 | –
293.15 K, 83 kPa, Liquid, Vibrating tube method | 1617.51 | –
295 K, 28026 kPa, Liquid, Buoyancy - hydrostatic balance with magnetic suspension - two sinkers | 1707.06 | –
298.15 K, 83 kPa, Liquid, Vibrating tube method | 1602.48 | –
303 K, 1007.3 kPa, Liquid, Buoyancy - hydrostatic balance with magnetic suspension - two sinkers | 1592.53 | –
303 K, 1089 kPa, Liquid, Buoyancy - hydrostatic balance with magnetic suspension - two sinkers | 1592.94 | –
303 K, 5959.8 kPa, Liquid, Buoyancy - hydrostatic balance with magnetic suspension - two sinkers | 1615.54 | –
303 K, 6069.2 kPa, Liquid, Buoyancy - hydrostatic balance with magnetic suspension - two sinkers | 1616.01 | –
303 K, 12121 kPa, Liquid, Buoyancy - hydrostatic balance with magnetic suspension - two sinkers | 1639.93 | –
303 K, 22348 kPa, Liquid, Buoyancy - hydrostatic balance with magnetic suspension - two sinkers | 1673.62 | –
303 K, 28346 kPa, Liquid, Buoyancy - hydrostatic balance with magnetic suspension - two sinkers | 1690.63 | –
303 K, 33973 kPa, Liquid, Buoyancy - hydrostatic balance with magnetic suspension - two sinkers | 1705.21 | –
303.15 K, 83 kPa, Liquid, Vibrating tube method | 1587.28 | –
308.15 K, 83 kPa, Liquid, Vibrating tube method | 1571.82 | –
310 K, 4843.5 kPa, Liquid, Buoyancy - hydrostatic balance with magnetic suspension - two sinkers | 1590.92 | –
318 K, 9214.8 kPa, Liquid, Buoyancy - hydrostatic balance with magnetic suspension - two sinkers | 1589.2 | –
318 K, 9295.7 kPa, Liquid, Buoyancy - hydrostatic balance with magnetic suspension - two sinkers | 1589.59 | –
324.97 K, 65.34 kPa, Gas, Spherical resonator | – | 90.45
324.97 K, 82.58 kPa, Gas, Spherical resonator | – | 89.49
324.97 K, 100.55 kPa, Gas, Spherical resonator | – | 88.41
324.97 K, 100.57 kPa, Gas, Spherical resonator | – | 88.41
324.97 K, 100.58 kPa, Gas, Spherical resonator | – | 88.41
326.01 K, 13558 kPa, Liquid, Buoyancy - hydrostatic balance with magnetic suspension - two sinkers | 1587.57 | –
334.01 K, 17866 kPa, Liquid, Buoyancy - hydrostatic balance with magnetic suspension - two sinkers | 1585.99 | –
334.02 K, 17984 kPa, Liquid, Buoyancy - hydrostatic balance with magnetic suspension - two sinkers | 1586.44 | –
340 K, 1091.8 kPa, Liquid, Buoyancy - hydrostatic balance with magnetic suspension - two sinkers | 1474.85 | –
340 K, 4035.6 kPa, Liquid, Buoyancy - hydrostatic balance with magnetic suspension - two sinkers | 1497.23 | –
340 K, 7986.5 kPa, Liquid, Buoyancy - hydrostatic balance with magnetic suspension - two sinkers | 1522.5 | –
340 K, 11938 kPa, Liquid, Buoyancy - hydrostatic balance with magnetic suspension - two sinkers | 1544.06 | –
340 K, 16171 kPa, Liquid, Buoyancy - hydrostatic balance with magnetic suspension - two sinkers | 1564.25 | –
340 K, 21184 kPa, Liquid, Buoyancy - hydrostatic balance with magnetic suspension - two sinkers | 1585.31 | –
342.01 K, 22145 kPa, Liquid, Buoyancy - hydrostatic balance with magnetic suspension - two sinkers | 1584.49 | –
349.97 K, 150.02 kPa, Gas, Spherical resonator | – | 90.93
349.97 K, 191.77 kPa, Gas, Spherical resonator | – | 88.85
349.98 K, 61.83 kPa, Gas, Spherical resonator | – | 94.86
349.98 K, 106.24 kPa, Gas, Spherical resonator | – | 92.93
350 K, 53.94 kPa, Gas, Spherical resonator | – | 95.2
350 K, 104.66 kPa, Gas, Spherical resonator | – | 93
350 K, 152.11 kPa, Gas, Spherical resonator | – | 90.82
350 K, 191.03 kPa, Gas, Spherical resonator | – | 88.88
350 K, 26385 kPa, Liquid, Buoyancy - hydrostatic balance with magnetic suspension - two sinkers | 1583.04 | –
360 K, 1009.8 kPa, Liquid, Buoyancy - hydrostatic balance with magnetic suspension - two sinkers | 1401.62 | –
360 K, 6002.5 kPa, Liquid, Buoyancy - hydrostatic balance with magnetic suspension - two sinkers | 1449.57 | –
360 K, 8915.5 kPa, Liquid, Buoyancy - hydrostatic balance with magnetic suspension - two sinkers | 1471.34 | –
360 K, 11021 kPa, Liquid, Buoyancy - hydrostatic balance with magnetic suspension - two sinkers | 1485.32 | –
360 K, 16073 kPa, Liquid, Buoyancy - hydrostatic balance with magnetic suspension - two sinkers | 1514.43 | –
360 K, 21146 kPa, Liquid, Buoyancy - hydrostatic balance with magnetic suspension - two sinkers | 1539.18 | –
360 K, 31620 kPa, Liquid, Buoyancy - hydrostatic balance with magnetic suspension - two sinkers | 1581.19 | –
370 K, 4182.9 kPa, Liquid, Buoyancy - hydrostatic balance with magnetic suspension - two sinkers | 1400.06 | –
375.01 K, 57.06 kPa, Gas, Spherical resonator | – | 98.91
375.01 K, 123.45 kPa, Gas, Spherical resonator | – | 96.64
375.01 K, 220.4 kPa, Gas, Spherical resonator | – | 93.07
375.01 K, 316.42 kPa, Gas, Spherical resonator | – | 89.11
380 K, 7353.3 kPa, Liquid, Buoyancy - hydrostatic balance with magnetic suspension - two sinkers | 1398.51 | –
380.04 K, 16688 kPa, Liquid, Buoyancy - hydrostatic balance with magnetic suspension - two sinkers | 1468.1 | –
385.99 K, 9254.1 kPa, Liquid, Buoyancy - hydrostatic balance with magnetic suspension - two sinkers | 1397.63 | –
393.98 K, 11788 kPa, Liquid, Buoyancy - hydrostatic balance with magnetic suspension - two sinkers | 1396.48 | –
400 K, 2018.5 kPa, Liquid, Buoyancy - hydrostatic balance with magnetic suspension - two sinkers | 1244.05 | –
400 K, 3987.4 kPa, Liquid, Buoyancy - hydrostatic balance with magnetic suspension - two sinkers | 1284.55 | –
400 K, 8129.1 kPa, Liquid, Buoyancy - hydrostatic balance with magnetic suspension - two sinkers | 1342.48 | –
400.01 K, 11999 kPa, Liquid, Buoyancy - hydrostatic balance with magnetic suspension - two sinkers | 1381.28 | –

83 kPa, Liquid, Frequency=3 MHz, Sing-around technique in a fixed-path interferometer
Settings | speed of sound [m/s]
278.15 K | 567.88
283.15 K | 551.54
288.15 K | 535.45
293.15 K | 519.58
298.15 K | 503.72
303.15 K | 488.11
308.15 K | 472.63

Liquid
Settings | vapor or sublimation pressure
324.96 K | 111.4 kPa and 111.4 kPa
324.97 K | 111.4 kPa and 111.3 kPa
324.98 K | 111.6 kPa
339.95 K | 180.3 kPa
349.99 K | 242.7 kPa
354.98 K | 278.7 kPa
370 K | 413.4 kPa
374.99 K | 467.9 kPa and 467.6 kPa
390.03 K | 663.7 kPa
